In PMC6695788, “Screening and Isolating Major Aldose Reductase Inhibitors from the Seeds of Evening Primrose (Oenothera biennis)” (Molecules, 2019):
Read-outs that look alike come from different tables or passages of the source.

Tests used:
[1] = molecular target: T1, human recombinant aldose reductase (Homo sapiens, UniProt P15121); test: Affinity-based ultrafiltration-HPLC screening; format: binding; conditions: ESME incubated with AR 6.9 µM, 37 °C, 30 min, ultrafiltrate analysed
T1 construct: purchased Wako Pure Chemical Industries Ltd. (Osaka, Japan)
Procedure: The ultrafiltrate was collected for further HPLC analysis.
HPLC analysis was performed using an Agilent 1100 HPLC instrument (Agilent, Santa Clara, CA, USA) equipped with an Eclipse Plus C18 column (150 mm length, 4.6 mm i.d., and 5 µm particle size; Agilent, Santa Clara, CA, USA). The temperature of the column oven was set at 30 °C and the injection volumes of the samples were 10 µL.

[2] = molecular target: T2, rat lens aldose reductase (RLAR) (Rattus norvegicus, UniProt P07943); test: Rat lens aldose reductase (RLAR) inhibitory assay; format: biochemical; conditions: mean ± SD (n = 3); for inhibition at 10 µg/mL: sample concentration 10 μg/mL
T2 construct: the supernatant that retained the RLAR was collected for further tests; from tissue; host or cells: eye lens of Sprague-Dawley rats
Procedure: To extract the RLAR, the eye lens removed from the rats were first homogenized with sodium phosphate buffer (0.1 M, pH 6.2). […] Finally, the supernatant that retained the RLAR was collected for further tests. […] The inhibitory activities of the samples can be calculated using Equation (1):(1) Inhibition (%)=(1−ΔAsample−ΔAblank/ΔAcontrol−ΔAblank)×100% where ΔAcontrol is the absorbance change in 3 min of the tested mixture without the sample; ΔAblank is the absorbance change in 3 min of the tested mixture without RLAR; and ΔAsample is the absorbance change in 3 min of the tested mixture. The IC50 values of the active samples were also calculated and listed, where IC50 indicates the concentration of the tested sample required to consume half of the NADPH.

Row | Structure (SMILES) | HPLC peak area after incubation with human recombinant aldose reductase vs without [1] | IC50 ([2]; isolated compounds, read-out: IC50) [µM] | inhibition at 10 µg/mL ([2]; isolated compounds) [%] | IC50 ([2]; IC50, isolated compounds) [µM] | inhibition at 10 µg/mL ([2]; extracts and fractions) [%]
1 | O=C(O)c1cc(O)c(O)c(O)c1 [Gallic acid (1), gallic acid] | decreased | – | 80.2 ± 1.56 | 11.5 ± 1.82 | –
2 | COC(=O)c1cc(O)c(O)c(O)c1 [Methyl gallate (4), methyl gallate] | decreased | – | 32.2 ± 0.97 | – | –
3 | O=c1c(O)c(-c2ccc(O)c(O)c2)oc2cc(O)cc(O)c12 [Quercetin, quercetin, reference compound] | – | – | – | – | 81.6 ± 3.81

Now from value to molecule, other results behind:

Row | HPLC peak area after incubation with human recombinant aldose reductase vs without [1] | IC50 ([2]; isolated compounds, read-out: IC50) [µM] | inhibition at 10 µg/mL ([2]; isolated compounds) [%] | Structure (SMILES) | IC50 ([2]; IC50, isolated compounds) [µM] | inhibition at 10 µg/mL ([2]; extracts and fractions) [%]
4 | decreased | 14.8 ± 3.17 | 69.6 ± 1.99 | Oc1cc(O)c2c(c1)O[C@H](c1ccc(O)c(O)c1)[C@@H](O)C2 [Catechin (3), catechin] | – | –
5 | decreased | – | 44.6 ± 1.99 | Oc1cc(O)c2c(c1)O[C@H](c1ccc(O)c(O)c1)[C@@H](O)[C@@H]2c1c(O)cc(O)c2c1O[C@H](c1ccc(O)c(O)c1)[C@@H](O)C2 [Procyanidin B3 (2), procyanidin B3] | – | –
